How the values were obtained:
late watergrass [1] = assay: Test Example 1: herbicidal activity, application before weed generation under submerged conditions (Table 16, symbol A); assay type: in vivo, late watergrass (Echinochloa oryzicola)
Procedure, shortened: (§1)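 Submerged Wagner pots (alluvial soil, 4 cm water) sown with weed seeds and planted with 2.5-leaf rice seedlings; emulsifiable concentrate diluted in water applied to water surface on sowing day. Held in greenhouse at 25-30 °C; injury scored 0-5 by herbicidal rate after three weeks.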

Japanese bulrush = assay: Test Example 1: herbicidal activity, application before weed generation under submerged conditions (Table 16, symbol B); assay type: in vivo, Japanese bulrush (Schoenoplectus juncoides)
Procedure, shortened: as §1

late watergrass [2] = assay: Test Example 2: herbicidal activity, application during weed generation under submerged conditions (Table 17, symbol A); assay type: in vivo, late watergrass (Echinochloa oryzicola); conditions: application during weed generation, submerged conditions
Procedure, shortened: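 In this pot test, flooded alluvial soil (water depth 4 cm) holds all three species sown as a mixture. Once seedlings have one to two leaves, the compound's emulsion, thinned with water to the intended dose, is poured on the water; grading follows after three weeks on the earlier criteria.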

Chinese sprangletop = assay: Test Example 3: herbicidal effect by foliage application, Wagner pot (Table 18, symbol D); assay type: in vivo, chinese sprangletop (Leptochloa chinensis)
Procedure, shortened: (§2)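 Plants were sown in alluvial soil held under 0.1–0.5 cm standing water and grown 14 days in a greenhouse at 25–30 °C. An emulsifiable formulation, water-diluted to the set dose, was then sprayed onto the foliage, and effects were scored three weeks later using previously defined criteria.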

rice flat sedge = assay: Test Example 3: herbicidal effect by foliage application, Wagner pot (Table 18, symbol E); assay type: in vivo, rice flat sedge (Cyperus iria)
Procedure, shortened: as §2

southern crabgrass = assay: Test Example 4: herbicidal effect by soil treatment (Table 19, symbol F); assay type: in vivo, southern crabgrass (Digitaria ciliaris)
Procedure, shortened: (§3)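 Three weeks of greenhouse growth at 25° C. to 30° C. followed a uniform surface spray of water-diluted emulsion at a predetermined herbicide amount. Seeds had been sown beforehand under about 1.5 cm of sterilized diluvial soil. Grading followed criteria set out in an earlier test.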

wild oat [3] = assay: Test Example 4: herbicidal effect by soil treatment (Table 19, symbol I); assay type: in vivo, wild oat (Avena fatua)
Procedure, shortened: as §3

Italian ryegrass [4] = assay: Test Example 4: herbicidal effect by soil treatment (Table 19, symbol K); assay type: in vivo, Italian ryegrass (Lolium multiflorum)
Procedure, shortened: as §3

windgrass = assay: Test Example 4: herbicidal effect by soil treatment (Table 19, symbol L); assay type: in vivo, windgrass (Apera spica-venti)
Procedure, shortened: as §3

lambsquarters = assay: Test Example 4: herbicidal effect by soil treatment (Table 19, symbol O); assay type: in vivo, lambsquarters (Chenopodium album)
Procedure, shortened: as §3

chickweed = assay: Test Example 4: herbicidal effect by soil treatment (Table 19, symbol P); assay type: in vivo, common chickweed (Stellaria media)
Procedure, shortened: as §3

green foxtail = assay: Test Example 5: herbicidal effect by foliage application, plastic box (Table 20, symbol G); assay type: in vivo, green foxtail (Setaria viridis); conditions: foliage application; for effect on green foxtail (G): 320 g/ha, 3 weeks after application
Procedure, shortened: (§4)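 Plants sown in sterilized diluvial soil and grown 14 days in a greenhouse at 25° C to 30° C, then sprayed on the foliage with the compound's emulsion diluted in water to a predetermined herbicide amount. Injury to weeds and crops scored three weeks after application on a visual rating scale.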

barnyard grass = assay: Test Example 5: herbicidal effect by foliage application, plastic box (Table 20, symbol H); assay type: in vivo, barnyard grass (Echinochloa crus-galli); conditions: foliage application; for effect on barnyard grass (H): 320 g/ha, 3 weeks after application
Procedure, shortened: as §4

wild oat [5] = assay: Test Example 5: herbicidal effect by foliage application, plastic box (Table 20, symbol I); assay type: in vivo, wild oat (Avena fatua); conditions: foliage application; for effect on wild oat (I): 320 g/ha, 3 weeks after application
Procedure, shortened: as §4

blackgrass = assay: Test Example 5: herbicidal effect by foliage application, plastic box (Table 20, symbol J); assay type: in vivo, blackgrass (Alopecurus myosuroides); conditions: foliage application; for effect on blackgrass (J): 320 g/ha, 3 weeks after application
Procedure, shortened: as §4

Italian ryegrass [6] = assay: Test Example 5: herbicidal effect by foliage application, plastic box (Table 20, symbol K); assay type: in vivo, Italian ryegrass (Lolium multiflorum); conditions: foliage application; for effect on Italian ryegrass (K): 320 g/ha, 3 weeks after application
Procedure, shortened: as §4

velvetleaf = assay: Test Example 5: herbicidal effect by foliage application, plastic box (Table 20, symbol M); assay type: in vivo, velvetleaf (Abutilon theophrasti); conditions: foliage application; for effect on velvetleaf (M): 320 g/ha, 3 weeks after application
Procedure, shortened: as §4

[7] = AAH 368 g/ha, three weeks after application

| SMILES | Herbicidal effect on A: late watergrass (grade 0-5) (late watergrass [1]; 320 g/ha applied herbicide) | Herbicidal effect on B: Japanese bulrush (grade 0-5) (Japanese bulrush; 320 g/ha applied herbicide) | herbicidal effect rating, A: late watergrass (late watergrass [2]; AAH 320 g/ha) | herbicidal effect on D (Chinese sprangletop), rating 0-5 (Chinese sprangletop; 320 g/ha) | herbicidal effect on E (rice flat sedge), rating 0-5 (rice flat sedge; 320 g/ha) | F: southern crabgrass, herbicidal effect rating (southern crabgrass; AAH 320 g/ha) | I: wild oat, herbicidal effect rating (wild oat [3]; AAH 320 g/ha) | K: Italian ryegrass, herbicidal effect rating (Italian ryegrass [4]; AAH 320 g/ha) | L: windgrass, herbicidal effect rating (windgrass; AAH 320 g/ha) | O: lambsquarters, herbicidal effect rating (lambsquarters; AAH 320 g/ha) | P: chickweed, herbicidal effect rating (chickweed; AAH 320 g/ha) | effect on green foxtail (G) (green foxtail) | effect on barnyard grass (H) (barnyard grass) | effect on wild oat (I) (wild oat [5]) | effect on blackgrass (J) (blackgrass) | effect on Italian ryegrass (K) (Italian ryegrass [6]) | effect on velvetleaf (M) (velvetleaf) | other results |
| --- | --- | --- | --- | --- | --- | --- | --- | --- | --- | --- | --- | --- | --- | --- | --- | --- | --- | --- |
| COCCOc1ccc(-c2sc3ccccc3c2-c2c(O)c(C)nn(C)c2=O)cc1 [1-148] | – | – | – | – | – | – | – | – | – | – | – | – | – | – | – | – | – | Herbicidal effect on A: late watergrass (grade 0-5) (late watergrass [1]; 368 g/ha applied herbicide): 3 (Herbicidal rate of 40% or more and less than 70%); Herbicidal effect on B: Japanese bulrush (grade 0-5) (Japanese bulrush; 368 g/ha applied herbicide): 3 (Herbicidal rate of 40% or more and less than 70%); herbicidal effect rating, A: late watergrass (late watergrass [2]; AAH 368 g/ha): 3 (Herbicidal rate of 40% or more and less than 70%); herbicidal effect on D (Chinese sprangletop), rating 0-5 (Chinese sprangletop; 368 g/ha): 4 (Herbicidal rate of 70% or more and less than 90%); herbicidal effect on E (rice flat sedge), rating 0-5 (rice flat sedge; 368 g/ha): 5 (Herbicidal rate of 90% or more (almost completely withered)); F: southern crabgrass, herbicidal effect rating (southern crabgrass; AAH 368 g/ha): 4 (Herbicidal rate of 70% or more and less than 90%); I: wild oat, herbicidal effect rating (wild oat [3]; AAH 368 g/ha): 2 (Herbicidal rate of 20% or more and less than 40%); K: Italian ryegrass, herbicidal effect rating (Italian ryegrass [4]; AAH 368 g/ha): 5 (Herbicidal rate of 90% or more (almost completely withered)); L: windgrass, herbicidal effect rating (windgrass; AAH 368 g/ha): 0 (Herbicidal rate of 5% or less (almost no effect)); O: lambsquarters, herbicidal effect rating (lambsquarters; AAH 368 g/ha): 5 (Herbicidal rate of 90% or more (almost completely withered)); P: chickweed, herbicidal effect rating (chickweed; AAH 368 g/ha): 5 (Herbicidal rate of 90% or more (almost completely withered)); G: green foxtail, herbicidal effect (green foxtail; [7]): 5 (Herbicidal rate of 90% or more (almost completely withered)); H: barnyard grass, herbicidal effect (barnyard grass; [7]): 5 (Herbicidal rate of 90% or more (almost completely withered)); I: wild oat, herbicidal effect (wild oat [5]; [7]): 4 (Herbicidal rate of 70% or more and less than 90%); J: blackgrass, herbicidal effect (blackgrass; [7]): 4 (Herbicidal rate of 70% or more and less than 90%); K: Italian ryegrass, herbicidal effect (Italian ryegrass [6]; [7]): 5 (Herbicidal rate of 90% or more (almost completely withered)); M: velvetleaf, herbicidal effect (velvetleaf; [7]): 5 (Herbicidal rate of 90% or more (almost completely withered)) |
| Cc1nn(C)c(=O)c(-c2c(-c3ccc(OCCBr)cc3)sc3ccccc23)c1O [1-204] | 3 (Herbicidal rate of 40% or more and less than 70%) | 3 (Herbicidal rate of 40% or more and less than 70%) | 0 (Herbicidal rate of 5% or less (almost no effect)) | 2 (Herbicidal rate of 20% or more and less than 40%) | 5 (Herbicidal rate of 90% or more (almost completely withered)) | 0 (Herbicidal rate of 5% or less (almost no effect)) | 0 (Herbicidal rate of 5% or less (almost no effect)) | 0 (Herbicidal rate of 5% or less (almost no effect)) | 0 (Herbicidal rate of 5% or less (almost no effect)) | 3 (Herbicidal rate of 40% or more and less than 70%) | 0 (Herbicidal rate of 5% or less (almost no effect)) | 4 (Herbicidal rate of 70% or more and less than 90%) | 3 (Herbicidal rate of 40% or more and less than 70%) | 0 (Herbicidal rate of 5% or less (almost no effect)) | 0 (Herbicidal rate of 5% or less (almost no effect)) | 3 (Herbicidal rate of 40% or more and less than 70%) | 5 (Herbicidal rate of 90% or more (almost completely withered)) | – |
| Cc1nn(C)c(=O)c(-c2c(-c3ccc(OCCC(F)(F)F)cc3)sc3ccccc23)c1O [1-206] | 5 (Herbicidal rate of 90% or more (almost completely withered)) | 5 (Herbicidal rate of 90% or more (almost completely withered)) | 5 (Herbicidal rate of 90% or more (almost completely withered)) | 5 (Herbicidal rate of 90% or more (almost completely withered)) | 5 (Herbicidal rate of 90% or more (almost completely withered)) | 4 (Herbicidal rate of 70% or more and less than 90%) | 0 (Herbicidal rate of 5% or less (almost no effect)) | 5 (Herbicidal rate of 90% or more (almost completely withered)) | 3 (Herbicidal rate of 40% or more and less than 70%) | 5 (Herbicidal rate of 90% or more (almost completely withered)) | 3 (Herbicidal rate of 40% or more and less than 70%) | 5 (Herbicidal rate of 90% or more (almost completely withered)) | 5 (Herbicidal rate of 90% or more (almost completely withered)) | 2 (Herbicidal rate of 20% or more and less than 40%) | 5 (Herbicidal rate of 90% or more (almost completely withered)) | 5 (Herbicidal rate of 90% or more (almost completely withered)) | 5 (Herbicidal rate of 90% or more (almost completely withered)) | – |
| C=C(C)COc1ccc(-c2sc3ccccc3c2-c2c(O)c(C)nn(C)c2=O)cc1 [1-208] | 5 (Herbicidal rate of 90% or more (almost completely withered)) | 5 (Herbicidal rate of 90% or more (almost completely withered)) | 5 (Herbicidal rate of 90% or more (almost completely withered)) | 5 (Herbicidal rate of 90% or more (almost completely withered)) | 4 (Herbicidal rate of 70% or more and less than 90%) | 0 (Herbicidal rate of 5% or less (almost no effect)) | 0 (Herbicidal rate of 5% or less (almost no effect)) | 4 (Herbicidal rate of 70% or more and less than 90%) | 0 (Herbicidal rate of 5% or less (almost no effect)) | 0 (Herbicidal rate of 5% or less (almost no effect)) | 3 (Herbicidal rate of 40% or more and less than 70%) | 5 (Herbicidal rate of 90% or more (almost completely withered)) | 5 (Herbicidal rate of 90% or more (almost completely withered)) | 4 (Herbicidal rate of 70% or more and less than 90%) | 4 (Herbicidal rate of 70% or more and less than 90%) | 5 (Herbicidal rate of 90% or more (almost completely withered)) | 5 (Herbicidal rate of 90% or more (almost completely withered)) | – |
| C=C(Br)COc1ccc(-c2sc3ccccc3c2-c2c(O)c(C)nn(C)c2=O)cc1 [1-215] | 5 (Herbicidal rate of 90% or more (almost completely withered)) | 4 (Herbicidal rate of 70% or more and less than 90%) | 3 (Herbicidal rate of 40% or more and less than 70%) | 5 (Herbicidal rate of 90% or more (almost completely withered)) | 5 (Herbicidal rate of 90% or more (almost completely withered)) | 0 (Herbicidal rate of 5% or less (almost no effect)) | 0 (Herbicidal rate of 5% or less (almost no effect)) | 0 (Herbicidal rate of 5% or less (almost no effect)) | 0 (Herbicidal rate of 5% or less (almost no effect)) | 3 (Herbicidal rate of 40% or more and less than 70%) | 1 (Herbicidal rate of 5% or more and less than 20%) | 5 (Herbicidal rate of 90% or more (almost completely withered)) | 5 (Herbicidal rate of 90% or more (almost completely withered)) | 3 (Herbicidal rate of 40% or more and less than 70%) | 2 (Herbicidal rate of 20% or more and less than 40%) | 4 (Herbicidal rate of 70% or more and less than 90%) | 5 (Herbicidal rate of 90% or more (almost completely withered)) | – |

— patent US20230085307A1, “PYRIDAZINONE COMPOUND AND HERBICIDE” (NISSAN CHEMICAL CORPORATION, priority 2019, published 2023)
